# Columns and labels:
# [1] = Oral bioavailability in rat at 5 mg/kg; type: ADME, organism-based; details: in vivo
# Hepatitis C virus [2] = experiment: Antiviral activity against HCV genotype 1b harboring wild type NS3/4A protease infected in human HuH7 cells assessed as inhibition of viral replication after 72 hrs by RT-PCR method in presence of 10% fetal bovine serum; type: functional, organism-based, Hepacivirus hominis; details: Huh-7, 72 h
# Hepatitis C virus [3] = experiment: Antiviral activity against HCV genotype 1a harboring wild type NS3/4A protease infected in human HuH7 cells assessed as inhibition of viral replication after 72 hrs by RT-PCR method in presence of 10% fetal bovine serum; type: functional, organism-based, Hepacivirus hominis; details: subtype 1a, Huh-7, 72 h
# Hepatitis C virus [4] = experiment: Antiviral activity against HCV genotype 1b harboring NS3/4A protease D168Y mutant infected in human HuH7 cells assessed as inhibition of viral replication after 72 hrs by RT-PCR method in presence of 10% fetal bovine serum; type: functional, organism-based, Hepacivirus hominis; details: Huh-7, 72 h
# [5] = AUC (0 to 24 hrs) in rat at 5 mg/kg, po; type: ADME, organism-based; parameters: dose 5 mg/kg, time < 24 hr, route oral; details: in vivo
# Hepatitis C virus [6] = experiment: Antiviral activity against HCV genotype 1b harboring wild type NS3/4A protease infected in human HuH7 cells assessed as inhibition of viral replication after 72 hrs by RT-PCR method in presence of 10% normal human serum; type: functional, organism-based, Hepacivirus hominis; details: Huh-7, 72 h
# [7] = Inhibition of HCV genotype 1b full length NS3/4A protease using Ac-C(Eu)DDMEEAbu[COO]ASK(QSY7)-amide as substrate preincubated for 30 mins followed by substrate addition measured after 2.5 hrs by TRF assay; parameters: species or system Hepatitis C virus subtype 1b
# [8] = biological target: Hepatitis C virus serine protease, NS3/NS4A (Hepatitis C virus, UniProt A3EZI9+D2K2A8, R155K); experiment: Inhibition of HCV genotype 1b NS3/4A protease R155K mutant using Ac-C(Eu)DDMEEAbu[COO]ASK(QSY7)-amide as substrate preincubated for 30 mins followed by substrate addition measured after 2.5 hrs by TRF assay; parameters: species or system Hepatitis C virus subtype 1b
# [9] = Inhibition of HCV genotype 1b NS3/4A protease D168Y mutant using Ac-C(Eu)DDMEEAbu[COO]ASK(QSY7)-amide as substrate preincubated for 30 mins followed by substrate addition measured after 2.5 hrs by TRF assay; parameters: species or system Hepatitis C virus subtype 1b
# [10] = Half life in rat at 5 mg/kg, po; type: ADME, organism-based; details: in vivo
# Hepatitis C virus [11] = experiment: Antiviral activity against HCV genotype 1b harboring NS3/4A protease A156T mutant infected in human HuH7 cells assessed as inhibition of viral replication after 72 hrs by RT-PCR method in presence of 10% fetal bovine serum; type: functional, organism-based, Hepacivirus hominis; details: Huh-7, 72 h
# Hepatitis C virus [12] = experiment: Antiviral activity against HCV genotype 1b harboring NS3/4A protease R155K mutant infected in human HuH7 cells assessed as inhibition of viral replication after 72 hrs by RT-PCR method in presence of 10% fetal bovine serum; type: functional, organism-based, Hepacivirus hominis; details: Huh-7, 72 h
# [13] = Inhibition of HCV genotype 1b NS3/4A protease A156V mutant using Ac-C(Eu)DDMEEAbu[COO]ASK(QSY7)-amide as substrate preincubated for 30 mins followed by substrate addition measured after 2.5 hrs by TRF assay; parameters: species or system Hepatitis C virus subtype 1b
# [14] = Inhibition of HCV genotype 3a full length NS3/4A protease using Ac-C(Eu)DDMEEAbu[COO]ASK(QSY7)-amide as substrate preincubated for 30 mins followed by substrate addition measured after 2.5 hrs by TRF assay; parameters: species or system Hepatitis C virus subtype 3a
# [15] = Inhibition of HCV genotype 1b NS3/4A protease A156T mutant using Ac-C(Eu)DDMEEAbu[COO]ASK(QSY7)-amide as substrate preincubated for 30 mins followed by substrate addition measured after 2.5 hrs by TRF assay; parameters: species or system Hepatitis C virus subtype 1b
smiles,measurement,setting,value
Cc1nc2ccccc2c2c1O[C@]1(CC2)C[C@H]2C(=O)N[C@]3(C(=O)NS(=O)(=O)C4(C)CC4)C[C@H]3/C=C\CCCCC[C@H](NC(=O)OC(C)(C)C)C(=O)N2C1,bioavailability,[1],4%
same,EC50,Hepatitis C virus [2],0.6 nM
same,EC50,Hepatitis C virus [3],1 nM
same,EC50,Hepatitis C virus [4],1.2 nM
same,AUC(0-t) at 24 h,[5],0.14 µM·h
same,EC50,Hepatitis C virus [6],4.5 nM
same,IC50,[7],0.013 nM
same,IC50,[8],0.083 nM
same,IC50,[9],0.049 nM
same,half-life,[10],54 min
same,EC50,Hepatitis C virus [11],0.67 nM
same,EC50,Hepatitis C virus [12],0.6 nM
same,IC50,[13],0.44 nM
same,IC50,[14],0.7 nM
same,IC50,[15],0.018 nM
CC(C)(C)OC(=O)N[C@H]1CCCCC/C=C\[C@@H]2C[C@@]2(C(=O)NS(=O)(=O)C2(C)CC2)NC(=O)[C@@H]2C[C@]3(CCc4c(c(C5CC5)nc5ccccc45)O3)CN2C1=O,AUC(0-t) at 24 h,[5],2 µM·h
same,IC50,[14],13 nM
COc1ccc2nc(C)c3c(c2c1)CC[C@]1(C[C@H]2C(=O)N[C@]4(C(=O)NS(=O)(=O)C5(C)CC5)C[C@H]4/C=C\CCCCC[C@H](NC(=O)OCC(C)C)C(=O)N2C1)O3,AUC(0-t) at 24 h,[5],0.13 µM·h
same,IC50,[14],0.18 nM
COc1ccc2nc(C(F)(F)F)c3c(c2c1)CC[C@]1(C[C@H]2C(=O)N[C@]4(C(=O)NS(=O)(=O)C5(C)CC5)C[C@H]4/C=C\CCCCC[C@H](NC(=O)OC(C)(C)C)C(=O)N2C1)O3,AUC(0-t) at 24 h,[5],2 µM·h
same,IC50,[14],0.27 nM
COc1ccc2nc(C)c3c(c2c1)CC[C@]1(C[C@H]2C(=O)N[C@]4(C(=O)NS(=O)(=O)C5(C)CC5)C[C@H]4/C=C\CCCCC[C@H](NC(=O)OC(C)(C)C)C(=O)N2C1)O3,AUC(0-t) at 24 h,[5],0.08 µM·h
same,IC50,[14],0.4 nM

# — ChEMBL document CHEMBL3785042, “Discovery of MK-8831, A Novel Spiro-Proline Macrocycle as a Pan-Genotypic HCV-NS3/4a Protease Inhibitor” (ACS Med Chem Lett, 2016)
